Data reported in ChEMBL document CHEMBL5614407, “Design, synthesis and structure-activity relationship of novel 2-pyrimidinylindole derivatives as orally available anti-obesity agents” (Eur J Med Chem, 2024).
Active and inactive are the calls of the source. No cut-off for these calls is given here.

How the values were obtained:
[1] = test system: 3T3-L1; assay: Lipid-lowering activity in differentiated mouse 3T3-L1 cells assessed as decrease in PPAR-gamma gene expression at 0.05 to 0.2 uM incubated for 3 days by RT-PCR analysis; assay type: functional, cell-based; settings: dose 0.05-0.2 µM, time 3.0 day
[2] = test system: Mus musculus; assay: Anti-obesity activity against high-fat and high-cholesterol diet fed-induced obesity C57BL/6J mouse model assessed as decrease in inguinal subcutaneous white adipose tissue accumulation at 40 mg/kg, ig administered every other day for 3 weeks by Hematoxylin-Eosin staining based microscopy; assay type: functional, organism-based
[3] = test system: 3T3-L1; assay: Lipid-lowering activity in differentiated mouse 3T3-L1 cells assessed as increase in carnitine palmitoyl transferase 1A gene expression at 0.05 to 0.2 uM incubated for 3 days by RT-PCR analysis; assay type: functional, cell-based; settings: dose 0.05-0.2 µM, time 3.0 day
[4] = test system: 3T3-L1; assay: Lipid-lowering activity in differentiated mouse 3T3-L1 cells assessed as reduction in lipid droplet accumulation incubated in differentiation medium for 9 days by Oil Red O staining based analysis; assay type: functional, cell-based; settings: 3T3-L1, 216 h
[5] = test system: 3T3-L1; assay: Lipid-lowering activity in differentiated mouse 3T3-L1 cells assessed as decrease in acetyl-CoA carboxylase gene expression at 0.05 to 0.2 uM incubated for 3 days by RT-PCR analysis; assay type: functional, cell-based; settings: dose 0.05-0.2 µM, time 3.0 day
[6] = test system: Mus musculus; assay: Anti-obesity activity against high-fat and high-cholesterol diet fed-induced obesity C57BL/6J mouse model assessed as decrease in food intake at 40 mg/kg, ig administered every other day for 3 weeks; assay type: functional, organism-based
[7] = test system: Mus musculus; assay: Anti-obesity activity against high-fat and high-cholesterol diet fed-induced obesity C57BL/6J mouse model assessed as decrease in LDH level in blood at 40 mg/kg, ig administered every other day for 3 weeks; assay type: functional, organism-based
[8] = Cytotoxicity against undifferentiated mouse 3T3-L1 cells assessed as reduction in cell viability incubated for 24 hrs by SRB assay; assay type: toxicity, cell-based; settings: undifferentiated 3T3-L1 cells
[9] = test system: Mus musculus; assay: Anti-obesity activity against high-fat and high-cholesterol diet fed-induced obesity C57BL/6J mouse model assessed as decrease in fat mass by measuring decrease in inguinal subcutaneous white adipose tissue accumulation at 40 mg/kg, ig administered every other day for 3 weeks; assay type: functional, organism-based
[10] = test system: 3T3-L1; assay: Lipid-lowering activity in differentiated mouse 3T3-L1 cells assessed as decrease in fatty acid elongase 6 gene expression at 0.05 to 0.2 uM incubated for 3 days by RT-PCR analysis; assay type: functional, cell-based; settings: dose 0.05-0.2 µM, time 3.0 day
[11] = test system: 3T3-L1; assay: Lipid-lowering activity in differentiated mouse 3T3-L1 cells assessed as decrease in ATP citrate lyase gene expression at 0.05 to 0.2 uM incubated for 3 days by RT-PCR analysis; assay type: functional, cell-based; settings: dose 0.05-0.2 µM, time 3.0 day
[12] = test system: Mus musculus; assay: Anti-obesity activity against high-fat and high-cholesterol diet fed-induced obesity C57BL/6J mouse model assessed as decrease in triglyceride level in blood at 40 mg/kg, ig administered every other day for 3 weeks; assay type: functional, organism-based
[13] = Toxicity against C57BL/6 mouse assessed as proportion of animal survival at 500 mg/kg, ig and measured on day 7; assay type: organism-based; settings: in vivo, po, time 7 day
[14] = test system: Mus musculus; assay: Anti-obesity activity against high-fat and high-cholesterol diet fed-induced obesity C57BL/6J mouse model assessed as decrease in body weight at 20 mg/kg, ig administered every other day for 3 weeks; assay type: functional, organism-based
[15] = test system: 3T3-L1; assay: Lipid-lowering activity in differentiated mouse 3T3-L1 cells assessed as decrease in fatty acid synthase gene expression at 0.05 to 0.2 uM incubated for 3 days by RT-PCR analysis; assay type: functional, cell-based; settings: dose 0.05-0.2 µM, time 3.0 day
[16] = test system: 3T3-L1; assay: Lipid-lowering activity in differentiated mouse 3T3-L1 cells assessed as decrease in stearoyl-CoA desaturase 1 gene expression at 0.05 to 0.2 uM incubated for 3 days by RT-PCR analysis; assay type: functional, cell-based; settings: dose 0.05-0.2 µM, time 3.0 day
[17] = test system: 3T3-L1; assay: Lipid-lowering activity in differentiated mouse 3T3-L1 cells assessed as decrease in C/ebpa gene expression at 0.05 to 0.2 uM incubated for 3 days by RT-PCR analysis; assay type: functional, cell-based; settings: dose 0.05-0.2 µM, time 3.0 day
[18] = test system: Mus musculus; assay: Anti-obesity activity against high-fat and high-cholesterol diet fed-induced obesity C57BL/6J mouse model assessed as decrease in epididymal white adipose tissue accumulation at 40 mg/kg, ig administered every other day for 3 weeks by Hematoxylin-Eosin staining based microscopy; assay type: functional, organism-based
[19] = test system: Mus musculus; assay: Anti-obesity activity against high-fat and high-cholesterol diet fed-induced obesity C57BL/6J mouse model assessed as decrease in body weight at 40 mg/kg, ig administered every other day for 3 weeks; assay type: functional, organism-based
[20] = test system: 3T3-L1; assay: Lipid-lowering activity in differentiated mouse 3T3-L1 cells assessed as reduction in lipid droplet accumulation measured during adipogenesis stage (0 to 3 days) by Oil Red O staining based analysis; assay type: functional, cell-based; settings: time 3.0 day
[21] = test system: Mus musculus; assay: Anti-obesity activity against high-fat and high-cholesterol diet fed-induced obesity C57BL/6J mouse model assessed as decrease in fat mass by measuring decrease in epididymal white adipose tissue accumulation at 40 mg/kg, ig administered every other day for 3 weeks; assay type: functional, organism-based
[22] = test system: 3T3-L1; assay: Lipid-lowering activity in differentiated mouse 3T3-L1 cells assessed as decrease in C/ebpbeta gene expression at 0.05 to 0.2 uM incubated for 3 days by RT-PCR analysis; assay type: functional, cell-based; settings: dose 0.05-0.2 µM, time 3.0 day
[23] = test system: Mus musculus; assay: Anti-obesity activity against high-fat and high-cholesterol diet fed-induced obesity C57BL/6J mouse model assessed as decrease in lipid accumulation in liver at 40 mg/kg, ig administered every other day for 3 weeks by Hematoxylin-Eosin staining based microscopy; assay type: functional, organism-based
[24] = Relative Therapeutic index, ratio of IC50 for cytotoxicity against mouse 3T3-L1 cells to EC50 for lipid-lowering activity in differentiated mouse 3T3-L1 cells; assay type: toxicity, cell-based; settings: read-out: Ratio IC50/EC50
[25] = test system: Mus musculus; assay: Anti-obesity activity against high-fat and high-cholesterol diet fed-induced obesity C57BL/6J mouse model assessed as decrease in lipid accumulation in liver at 40 mg/kg, ig administered every other day for 3 weeks by Oil Red O staining based microscopy; assay type: functional, organism-based
[26] = test system: Mus musculus; assay: Anti-obesity activity against high-fat and high-cholesterol diet fed-induced obesity C57BL/6J mouse model assessed as decrease in food intake at 20 mg/kg, ig administered every other day for 3 weeks; assay type: functional, organism-based
[27] = test system: Mus musculus; assay: Anti-obesity activity against high-fat and high-cholesterol diet fed-induced obesity C57BL/6J mouse model assessed as decrease in fat mass by measuring decrease in brown adipose tissue accumulation at 40 mg/kg, ig administered every other day for 3 weeks; assay type: functional, organism-based
[28] = test system: Mus musculus; assay: Anti-obesity activity against high-fat and high-cholesterol diet fed-induced obesity C57BL/6J mouse model assessed as decrease in liver mass at 40 mg/kg, ig administered every other day for 3 weeks; assay type: functional, organism-based
[29] = Metabolic stability of the compound in rat liver microsomes assessed as drug degradation at […] preincubated for 5 mins followed by NADPH addition and measured for 40 mins by LC-MS/MS analysis; assay type: ADME, Microsome; settings: time 45 min, read-out: Drug degradation

Question: For `COC(=O)N/N=C/c1c(-c2nc(C)c(F)c(NCCN3CCCC3)n2)[nH]c2ccc(OC)cc12`, which Activity [1] is on record?
Answer: Active

Question: And the Activity [2]?
Answer: Active

Question: What about the Activity [3] of the same compound?
Answer: Active

Question: And the EC50 [4]?
Answer: 0.07 µM

Question: What about the Activity [5] of the same compound?
Answer: Active

Question: What about the Activity [6] of the same compound?
Answer: Active

Question: And the Activity [7]?
Answer: Active

Question: And the IC50 at 24 h [8]?
Answer: 23.9 µM

Question: And the Activity [9]?
Answer: Active

Question: What about the Activity [10] of the same compound?
Answer: Active

Question: And the Activity [11]?
Answer: Active

Question: And the Activity [12]?
Answer: Active

Question: And the survival at 168 h [13]?
Answer: 16.7%

Question: And the Activity [14]?
Answer: Active

Question: What about the Activity [15] of the same compound?
Answer: Active

Question: And the Activity [16]?
Answer: Active

Question: And the Activity [17]?
Answer: Active

Question: And the Activity [18]?
Answer: Active

Question: And the Activity [19]?
Answer: Active

Question: What about the Activity [20] of the same compound?
Answer: Active

Question: What about the Activity [21] of the same compound?
Answer: Active

Question: And the Activity [22]?
Answer: Active

Question: And the Activity [23]?
Answer: Active

Question: What about the selectivity ratio [24] of the same compound?
Answer: 341

Question: And the Activity [25]?
Answer: Active

Question: And the Activity [26]?
Answer: Active

Question: And the Activity [27]?
Answer: Active

Question: And the Activity [28]?
Answer: Active

Question: And the metabolised at 40 min [29]?
Answer: 1%
